Reference: patent US8318811B2, “Method for treating an inflammatory bowel disease using 2-amino-2-[4-(3-benzyloxyphenylthio)-2-chlorophenyl]ethyl-1,3-propanediol or a salt thereof” (Kyorin Pharmaceutical Co., Ltd., priority 2006, dated 2012)
Counter-ions that a name gives are not always drawn.

Legend:
[1] = system: Dextran Sodium Sulfate-Induced Colitis in Mice; test: Dextran sodium sulfate-induced colitis in mice; assay type: in vivo, BALB/C male mice; settings: for Length of large intestine / myeloperoxidase activity in large intestine: DSS colitis, average ± standard error
Description: Colitis was induced in BALB/C male mice by allowing animals To drink a5% aqueous solution of dextran sodium sulfate (DSS) (average molecular weight=5000) for 7 days [Kitajima, S. et. al., Exp Anim, Vol. 49, No. 1: 9-15 (2000)]. KRP-203 dissolved in distilled water (at 0.01, 0.03 and 0.1 mg/kg) was orally administered once a day for 8 days, starting the day before the administration of DSS solution. One group was administered distilled water as a placebo.
8 days after the start of the DSS period, mice were anesthetized With diethylether and sacrificed by cervical dislocation. The large intestine (the segment from colon to anus) was removed from each animal. Because it is known that the ingestion of DSS solution causes colitis in mice that causes a decrease in the length of large intestine [Okayasu, I. et. al., Gastroenterology, Vol. 98: 694-702 (1990)], the length of the large intestine from the colon to anus was measured with a caliper. The large intestine was then cut open longitudinally to expose the lumen and the content was washed off with physiological saline. The specimens were assayed and compared for the activity of myeloperoxidase, a marker of inflammation in colitis [Grisham, M B. et. al., Methods Enzymol, Vol. 186: 729-742 (1990)]. […]
Tacrolimus was suspended in a 0.5% aqueous solution of carboxymethylcellulose sodium (CMC-Na) (at 3 mg/kg) and was administered once a day for 8 days, starting the day before the start of the DSS period. One group was administered 0.5% aqueous CMC-Na solution as a placebo. The increase in the myeloperoxidase activity in large intestine was suppressed by 37% in the 3 mg/kg group as compared to the placebo group.

IL-10 knockout mice = test: Effect on colitis in IL-10 knockout mice (histological score of large intestine); assay type: in vivo, B6.129P2-IL10<tm1Cgn>/J (IL-10 knockout) mice; settings: 0.1 mg/kg orally once a day for 4 weeks; sum of proximal, middle and distal large intestine scores; average ± standard error
Description: B6.129P2-IL10^<tm1Cgn>/J (IL-10 knockout) mice (male, 5-6 week old) were obtained for the test. KRP-203 dissolved in distilled water was orally administered at a dose of 0.1 mg/kg once a day for 4 weeks, starting 8 weeks after the animals were obtained. One group was administered distilled water alone as a placebo. Following the administration period, the animals were dissected to remove large intestine, which was then fixed in formalin. Subsequently, tissue slices were prepared from the formalin-fixed large intestine and were stained with hematoxylin and eosin. The proximal, middle, and distal segments of the large intestine were then histologically scored according to the standard procedure (Berg D J, et al., Gastroenterology, 123: 1527-1542 (2002)). The scores for the three segments were added together to determine the histological scores for individual animals. The results are given in average ±standard error.

[2] = 0.01 mg/kg orally once a day for 8 days
[3] = 0.03 mg/kg orally once a day for 8 days
[4] = 0.1 mg/kg orally once a day for 8 days

| Structure (SMILES) | suppression of the increase in the myeloperoxidase activity in large intestine as compared to the placebo group ([1]; 0.01 mg/kg group) [%] | Length of large intestine [1, 2] [mm] | myeloperoxidase activity in large intestine [1, 2] [U/g protein] | suppression of the increase in the myeloperoxidase activity in large intestine as compared to the placebo group ([1]; 0.03 mg/kg group) [%] | Length of large intestine [1, 3] [mm] | myeloperoxidase activity in large intestine [1, 3] [U/g protein] | suppression of the increase in the myeloperoxidase activity in large intestine as compared to the placebo group ([1]; 0.1 mg/kg group) [%] | Length of large intestine [1, 4] [mm] | myeloperoxidase activity in large intestine [1, 4] [U/g protein] | Histological Score (IL-10 knockout mice) | suppression of the increase in the myeloperoxidase activity in large intestine as compared to the placebo group ([1]; 3 mg/kg group, suspended in 0.5% CMC-Na, once a day for 8 days) [%] |
| --- | --- | --- | --- | --- | --- | --- | --- | --- | --- | --- | --- |
| NC(CO)(CO)CCc1ccc(Sc2cccc(OCc3ccccc3)c2)cc1Cl [KRP-203, 2-amino-2-[4-(3-benzyloxyphenylthio)-2-chlorophenyl]ethyl-1,3-propanediol hydrochloride] | 51 | 67.4 ± 1.4 | 55.8 ± 16.2 | 69 | 72.7 ± 1.5 | 36.8 ± 5.9 | 62 | 71.4 ± 1.4 | 44.4 ± 6.4 | 0.3 ± 0.2 | – |
| C=CC[C@@H]1/C=C(\C)C[C@H](C)C[C@H](OC)[C@H]2O[C@@](O)(C(=O)C(=O)N3CCCC[C@H]3C(=O)O[C@H](/C(C)=C/[C@@H]3CC[C@@H](O)[C@H](OC)C3)[C@H](C)[C@@H](O)CC1=O)[C@H](C)C[C@@H]2OC [Tacrolimus, tacrolimus, reference compound] | – | – | – | – | – | – | – | – | – | – | 37 |
